Results taken from patent EP1145714A1, “DRUGS” (Takeda Chemical Industries, Ltd., priority 1998, dated 2000).

Key:
[1] = test system: acute vomiting induced by cisplatin in ferrets; test: Acute vomiting induced by cisplatin in ferrets, compound orally given; type: in vivo; conditions: cisplatin 10 mg/kg i.p.; for Duration of retching (in hour; mean ± SD) / Duration of vomiting (in hour;, mean ± SD) / Frequency of retching (mean ± SD) / Frequency of vomiting (mean ± SD) / Number of ferrets with retching /number of tested ferrets / Number of ferrets with vomiting /number of tested ferrets / Time period until first retching (in hour; ± mean SD) / Time period until first vomiting (in hour;, mean ± SD): 5 hours
Description: 5 to 6 male ferrets (1.2 to 2.3 kg) per one group were used. Cisplatin was intraperitoneally given at 10 mg/10 ml/kg. One hour prior to cisplatin administration, a small volume of a feed was given to the animals. 30 minutes prior to cisplatin administration, predetermined doses of the compound No. 3 were orally given. Similarly, 0.5 % methyl cellulose (MC) solution was orally given to a control animal group under no fasting. The frequency of vomiting was counted in number, up to 5 hours after cisplatin administration.
(§1) The compound No. 3 was suspended in 0.5 % methyl cellulose solution to predetermined concentrations, for oral dosing at a ratio of 1 ml per 1 kg body weight. Additionally, 0.5% methyl cellulose solution was orally given at a ratio of 1 ml per 1 kg body weight. The data relating to the frequency of vomiting, the time period (latency) until first vomiting and the time period from the occurrence of vomiting to the termination thereof were statistically analyzed by the Dunnett test, with reference to the difference from the control group.
The acute retching suppression ratio and acute vomiting suppression ratio were calculated by the following formula. [Frequency of retching or vomiting in control] - [Frequency of retching or vomiting in animals dosed with the compound No. 3] / [Frequency of retching or vomiting in control] x 100 (%) [formula]

[2] = test system: cisplatin-induced acute vomiting in dogs; test: Cisplatin-induced acute vomiting in dogs, compound intravenously given; type: in vivo, beagle dogs; conditions: cisplatin 3 mg/kg i.v.; for Duration of vomiting (in hour;, mean ± SD) / Frequency of vomiting (mean ± SD) / Number of dogs with vomiting/number of tested dogs / Time period until first vomiting (in hour;, mean ± SD): 5 hours
Description: Male or female 3 beagle dogs (7.3 to 12.0 kg) per one group were used. Cisplatin was intravenously administered at 3 mg/3 ml/kg. 30 minutes before cisplatin administration, predetermined doses of the compound No. 3 were intravenously given to the animals under fasting. Similarly, a predetermined volume of PEG 400 was intravenously given to a control animal group under fasting.
as §1, with “dissolved” for “suspended”, “PEG 400” for “0.5 % methyl cellulose solution”, “intravenous” for “oral”, “PEG 400” for “0.5% methyl cellulose solution”, “intravenously” for “orally”, “latency” for “time period (latency) until first vomiting”
The acute retching suppression ratio and acute vomiting suppression ratio were determined in the same manner as in Example 1,3.

[3] = test system: methotrexate-induced delayed vomiting in dogs; test: Methotrexate-induced delayed vomiting in dogs, oral dosing; type: in vivo, beagle dogs; conditions: methotrexate 2.5 mg/kg i.v.; for Frequency of vomiting (mean ± SD), Total frequency / Number of dogs with vomiting/number of tested dogs: 72 hours
Description: 3 or 4 beagle dogs (8.3 to 12.6 kg), male or female per one group were used. Methotrexate was intravenously administered at 2.5 mg/ml/kg. 8, 24 and 48 hours after methotrexate dosing, predetermined doses of the compound No. 3, ondansetron and 0.5% methyl cellulose solution were orally given. The compound No. 3 and 0.5 % methyl cellulose solution were dosed 30 minutes after a small amount of a feed was given to the animals, while ondansetron was dosed to the animals under fasting. The frequency of vomiting was counted in number, up to 72 hours after methotrexate dosing. The compound No. 3 was suspended in 0.5 % methyl cellulose solution and was then orally dosed at a ratio of 0.25 to 1 ml per 1 kg body weight. A predetermined volume of an ondansetron injection at a concentration of 0.2 w/v % was orally dosed. Additionally, 0.5 % methyl cellulose solution was orally given at a ratio of 1 ml per 1 kg body weight. The data relating to the frequency of vomiting, the latency and the time period from the occurrence of vomiting to the termination thereof were statistically analyzed by the Dunnett test, with reference to the difference from the control group.
The delayed vomiting suppression ratio and the suppression ratio of the total frequency of vomiting were calculated by the following formula.

Cc1ccc(-c2c3n(c(=O)c4ncccc24)CC[C@@H](C)CN(Cc2cc(C(F)(F)F)cc(C(F)(F)F)c2)C3=O)cc1 [Cpd. No.3, (9R)-7-[3,5-bis(trifluoromethyl)benzyl]-6,7,8,9,10,11-hexahydro-9-methyl-5-(4-methylphenyl)-6,13-dioxo-13H-[1,4]diazocino[2,1-g][1,7]naphthylidine]
Suppression ratio of acute retching ([1]; 1 mg/kg p.o.): 38 % NS | Suppression ratio of acute vomiting ([1]; 1 mg/kg p.o.): 22 % NS | Duration of retching (in hour; mean ± SD) ([1]; 1 mg/kg p.o.): 1.7 ± 0.4 h | Duration of vomiting (in hour;, mean ± SD) ([1]; 1 mg/kg p.o.): 1.4 ± 0.4 h | Frequency of retching (mean ± SD) ([1]; 1 mg/kg p.o.): 79.0 ± 15.1 | Frequency of vomiting (mean ± SD) ([1]; 1 mg/kg p.o.): 8.3 ± 2.2 | Number of ferrets with retching /number of tested ferrets ([1]; 1 mg/kg p.o.): 6/6 | Number of ferrets with vomiting /number of tested ferrets ([1]; 1 mg/kg p.o.): 6/6 | Time period until first retching (in hour; ± mean SD) ([1]; 1 mg/kg p.o.): 1.5 ± 0.1 h | Time period until first vomiting (in hour;, mean ± SD) ([1]; 1 mg/kg p.o.): 1.6 ± 0.1 h | Effect on vomiting (in words) ([1]; 3 mg/kg p.o.): significantly suppressed | Suppression ratio of acute retching ([1]; 3 mg/kg p.o.): 53 % b | Suppression ratio of acute vomiting ([1]; 3 mg/kg p.o.): 27 % NS | Duration of retching (in hour; mean ± SD) ([1]; 3 mg/kg p.o.): 1.7 ± 0.3 h | Duration of vomiting (in hour;, mean ± SD) ([1]; 3 mg/kg p.o.): 1.6 ± 0.4 h | Frequency of retching (mean ± SD) ([1]; 3 mg/kg p.o.): 59.3 ± 12.0 b | Frequency of vomiting (mean ± SD) ([1]; 3 mg/kg p.o.): 7.8 ± 1.3 | Number of ferrets with retching /number of tested ferrets ([1]; 3 mg/kg p.o.): 6/6 | Number of ferrets with vomiting /number of tested ferrets ([1]; 3 mg/kg p.o.): 6/6 | Time period until first retching (in hour; ± mean SD) ([1]; 3 mg/kg p.o.): 1.6 ± 0.1 h | Time period until first vomiting (in hour;, mean ± SD) ([1]; 3 mg/kg p.o.): 1.6 ± 0.1 h | Effect on vomiting (in words) ([1]; 10 mg/kg p.o.): prominently suppressed | Suppression ratio of acute retching ([1]; 10 mg/kg p.o.): 88 % b | Suppression ratio of acute vomiting ([1]; 10 mg/kg p.o.): 70 % b | Duration of retching (in hour; mean ± SD) ([1]; 10 mg/kg p.o.): 2.4 ± 0.5 h | Duration of vomiting (in hour;, mean ± SD) ([1]; 10 mg/kg p.o.): 1.0 ± 0.4 h | Frequency of retching (mean ± SD) ([1]; 10 mg/kg p.o.): 14.8 ± 3.7 b | Frequency of vomiting (mean ± SD) ([1]; 10 mg/kg p.o.): 3.2 ± 1.0 b | Number of ferrets with retching /number of tested ferrets ([1]; 10 mg/kg p.o.): 5/6 | Number of ferrets with vomiting /number of tested ferrets ([1]; 10 mg/kg p.o.): 5/6 | Time period until first retching (in hour; ± mean SD) ([1]; 10 mg/kg p.o.): 2.1 ± 0.6 h | Time period until first vomiting (in hour;, mean ± SD) ([1]; 10 mg/kg p.o.): 2.2 ± 0.6 h | Suppression ratio of acute vomiting ([2]; 0.3 mg/kg i.v.): 34 % b | Duration of vomiting (in hour;, mean ± SD) ([2]; 0.3 mg/kg i.v.): 1.6 ± 0.2 h | Frequency of vomiting (mean ± SD) ([2]; 0.3 mg/kg i.v.): 12.0 ± 1.5a | Number of dogs with vomiting/number of tested dogs ([2]; 0.3 mg/kg i.v.): 3/3 | Time period until first vomiting (in hour;, mean ± SD) ([2]; 0.3 mg/kg i.v.): 1.6 ± 0.2 h | Effect on cisplatin-induced vomiting (in words) ([2]; 0.3 mg/kg or higher i.v.): significantly suppressed | Suppression ratio of acute vomiting ([2]; 1 mg/kg i.v.): 71 % b | Duration of vomiting (in hour;, mean ± SD) ([2]; 1 mg/kg i.v.): 1.7 ± 0.5 h | Frequency of vomiting (mean ± SD) ([2]; 1 mg/kg i.v.): 5.3 ± 1.2 a | Number of dogs with vomiting/number of tested dogs ([2]; 1 mg/kg i.v.): 3/3 | Time period until first vomiting (in hour;, mean ± SD) ([2]; 1 mg/kg i.v.): 1.4 ± 0.3 h | Effect on cisplatin-induced vomiting (in words) ([2]; 3 mg/kg i.v.): almost completely suppressed | Suppression ratio of acute vomiting ([2]; 3 mg/kg i.v.): 96 % b | Duration of vomiting (in hour;, mean ± SD) ([2]; 3 mg/kg i.v.): 0.1 ± 0.1 a hour | Frequency of vomiting (mean ± SD) ([2]; 3 mg/kg i.v.): 0.7 ± 0.7 a | Number of dogs with vomiting/number of tested dogs ([2]; 3 mg/kg i.v.): 1/3 | Time period until first vomiting (in hour;, mean ± SD) ([2]; 3 mg/kg i.v.): 3.9 ± 1.1 a hour | Effect on the latency (in words) ([2]; i.v.): prolonged | Effect on methotrexate-induced vomiting (in words) ([3]; 0.01 mg/kg or higher p.o.): significantly suppressed | Effect on the time period from the occurrence of vomiting to the termination thereof (in words) ([3]; 0.01 mg/kg or higher p.o.): significantly shortened | Delayed vomiting suppression ratio (24 to 72 hours after MIX dosing) ([3]; 0.01 mg/kg p.o. once daily): 60 % b | Suppression ratio of total frequency of vomiting (0 to 72 hours after MTX dosing) ([3]; 0.01 mg/kg p.o. once daily): 62 % b | Duration (in hour; mean ± SD) ([3]; 0.01 mg/kg p.o.): 21.8 ± 5.8 a hour | Frequency of vomiting (mean ± SD), Day 0 (0-24 hours) ([3]; 0.01 mg/kg p.o.): 0 b | Frequency of vomiting (mean ± SD), Days 1 + 2 (24 - 72 hours) ([3]; 0.01 mg/kg p.o.): 4.7 ± 0.7 b | Latency (in hour; mean ± SD) ([3]; 0.01 mg/kg p.o.): 33.8 ± 4.8 h | Frequency of vomiting (mean ± SD), Total frequency ([3]; 0.01 mg/kg p.o.): 4.7 ± 0.7 b | Number of dogs with vomiting/number of tested dogs ([3]; 0.01 mg/kg p.o.): 3/3 | Delayed vomiting suppression ratio (24 to 72 hours after MIX dosing) ([3]; 0.1 mg/kg p.o. once daily): 74 % b | Suppression ratio of total frequency of vomiting (0 to 72 hours after MTX dosing) ([3]; 0.1 mg/kg p.o. once daily): 76 % b | Duration (in hour; mean ± SD) ([3]; 0.1 mg/kg p.o.): 15.0 ± 8.0 b hour | Frequency of vomiting (mean ± SD), Day 0 (0-24 hours) ([3]; 0.1 mg/kg p.o.): 0 b | Frequency of vomiting (mean ± SD), Days 1 + 2 (24 - 72 hours) ([3]; 0.1 mg/kg p.o.): 3.0 ± 1.0 b | Latency (in hour; mean ± SD) ([3]; 0.1 mg/kg p.o.): 35.7 ± 7.1 h | Frequency of vomiting (mean ± SD), Total frequency ([3]; 0.1 mg/kg p.o.): 3.0 ± 1.0 b | Number of dogs with vomiting/number of tested dogs ([3]; 0.1 mg/kg p.o.): 3/3 | Delayed vomiting suppression ratio (24 to 72 hours after MIX dosing) ([3]; 1 mg/kg p.o. once daily): 68 % b | Suppression ratio of total frequency of vomiting (0 to 72 hours after MTX dosing) ([3]; 1 mg/kg p.o. once daily): 70 % b | Duration (in hour; mean ± SD) ([3]; 1 mg/kg p.o.): 14.4 ± 6.1 b hour | Frequency of vomiting (mean ± SD), Day 0 (0-24 hours) ([3]; 1 mg/kg p.o.): 0 b | Frequency of vomiting (mean ± SD), Days 1 + 2 (24 - 72 hours) ([3]; 1 mg/kg p.o.): 3.7 ± 0.7 b | Latency (in hour; mean ± SD) ([3]; 1 mg/kg p.o.): 46.7 ± 8.7 h | Frequency of vomiting (mean ± SD), Total frequency ([3]; 1 mg/kg p.o.): 3.7 ± 0.7 b | Number of dogs with vomiting/number of tested dogs ([3]; 1 mg/kg p.o.): 3/3 | Delayed vomiting suppression ratio (24 to 72 hours after MIX dosing) ([3]; 3 mg/kg p.o. once daily): 85 % b | Suppression ratio of total frequency of vomiting (0 to 72 hours after MTX dosing) ([3]; 3 mg/kg p.o. once daily): 86 % b | Duration (in hour; mean ± SD) ([3]; 3 mg/kg p.o.): 6.4 ± 5.9 b hour | Frequency of vomiting (mean ± SD), Day 0 (0-24 hours) ([3]; 3 mg/kg p.o.): 0 b | Frequency of vomiting (mean ± SD), Days 1 + 2 (24 - 72 hours) ([3]; 3 mg/kg p.o.): 1.7 ± 0.3 b | Latency (in hour; mean ± SD) ([3]; 3 mg/kg p.o.): 45.5 ± 3.3 h | Frequency of vomiting (mean ± SD), Total frequency ([3]; 3 mg/kg p.o.): 1.7 ± 0.3 b | Number of dogs with vomiting/number of tested dogs ([3]; 3 mg/kg p.o.): 3/3 | Delayed vomiting suppression ratio (24 to 72 hours after MIX dosing) ([3]; 10 mg/kg p.o. once daily): 97 % b | Suppression ratio of total frequency of vomiting (0 to 72 hours after MTX dosing) ([3]; 10 mg/kg p.o. once daily): 98 % b | Duration (in hour; mean ± SD) ([3]; 10 mg/kg p.o.): 0 b hour | Effect on methotrexate-induced vomiting (in words) ([3]; 10 mg/kg p.o.): almost completely suppressed | Frequency of vomiting (mean ± SD), Day 0 (0-24 hours) ([3]; 10 mg/kg p.o.): 0 b | Frequency of vomiting (mean ± SD), Days 1 + 2 (24 - 72 hours) ([3]; 10 mg/kg p.o.): 0.3 ± 0.3 b | Latency (in hour; mean ± SD) ([3]; 10 mg/kg p.o.): 66.2 ± 5.8 b hour | Frequency of vomiting (mean ± SD), Total frequency ([3]; 10 mg/kg p.o.): 0.3 ± 0.3 b | Number of dogs with vomiting/number of tested dogs ([3]; 10 mg/kg p.o.): 1/4
